# Measured values published in PubChem BioAssay (NCI).
#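 Following 48 hours of exposure in 96-well plates, responses at five concentrations were used to interpolate endpoints linearly. Definition used: TGI = concentration required for complete inhibition of growth.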
# Assays:
# Assay in all cases: NCI anticancer screen, dose series, 48 h
# [1] = system: MDA-MB-435
# [2] = system: K-562 leukemia
# [3] = system: DU-145 prostate
# [4] = system: U251 CNS
# [5] = system: LOX IMVI melanoma
# [6] = system: A549 NSCLC
# [7] = system: OVCAR-5 ovarian
# [8] = system: MALME-3M melanoma
# [9] = system: OVCAR-8 ovarian
# [10] = system: TK-10 renal
# [11] = system: MDA-MB-231 breast
# [12] = system: RPMI-8226 leukemia
# [13] = system: SNB-19 CNS
# [14] = system: UACC-257 melanoma
# [15] = system: SK-MEL-5 melanoma
# [16] = system: OVCAR-3 ovarian
# [17] = system: SW-620 colon
# [18] = system: M14 melanoma
# [19] = system: KM12 colon
# [20] = system: ACHN renal
# [21] = system: SK-OV-3 ovarian
# [22] = system: BT-549 breast
# [23] = system: NCI/ADR-RES ovarian
# [24] = system: HOP-62 NSCLC
# [25] = system: NCI-H23 lung
# [26] = system: A498 renal
# [27] = system: SF-539 CNS
# [28] = system: OVCAR-4 ovarian
# [29] = system: PC-3 prostate
# [30] = system: SR leukemia
# [31] = system: T-47D breast
# [32] = system: HS 578T breast
# [33] = system: IGROV1 ovarian
# [34] = system: NCI-H226 lung
# [35] = system: HL-60(TB) leukemia
# [36] = system: MOLT-4 leukemia
# [37] = system: SK-MEL-28 melanoma
# [38] = system: SF-268 CNS
# [39] = system: HT29 colon
# [40] = system: HCC-2998 colon
# [41] = system: HCT-116 colon
# [42] = system: NCI-H460 lung
# [43] = system: RXF 393 renal
# [44] = system: HCT-15 colon
# [45] = system: EKVX NSCLC
# [46] = system: CAKI-1 renal
# [47] = system: SN12C renal
# [48] = system: MCF7 breast
# [49] = system: SF-295 CNS
# [50] = system: CCRF-CEM leukemia
# [51] = system: NCI-H522 lung
# [52] = system: COLO 205 colon
# [53] = system: MDA-N
# [54] = system: UACC-62 melanoma
# [55] = system: 786-0 renal
# [56] = system: SK-MEL-2 melanoma
# [57] = system: HOP-92 NSCLC
# [58] = system: UO-31 renal
# [59] = system: SNB-75 CNS
smiles,measurement,setting,value
CC(C)(C)C1CCC2c3c([nH]c4ccccc34)C3C(=O)N(c4ccc5c(c4)C(=O)c4ccccc4C5=O)C(=O)C3C2C1 (stereo unspecified),TGI,[1],> 100 µM
same,TGI,[2],> 100 µM
same,TGI,[3],> 100 µM
same,TGI,[4],> 100 µM
same,TGI,[5],> 100 µM
same,TGI,[6],> 100 µM
same,TGI,[7],> 100 µM
same,TGI,[8],> 100 µM
same,TGI,[9],> 100 µM
same,TGI,[10],> 100 µM
same,TGI,[11],> 100 µM
same,TGI,[12],> 100 µM
same,TGI,[13],> 100 µM
same,TGI,[14],> 100 µM
same,TGI,[15],> 100 µM
same,TGI,[16],> 100 µM
same,TGI,[17],> 100 µM
same,TGI,[18],> 100 µM
same,TGI,[19],> 100 µM
same,TGI,[20],> 100 µM
same,TGI,[21],> 100 µM
same,TGI,[22],> 100 µM
same,TGI,[23],> 100 µM
same,TGI,[24],> 100 µM
same,TGI,[25],> 100 µM
same,TGI,[26],> 100 µM
same,TGI,[27],> 100 µM
same,TGI,[28],> 100 µM
same,TGI,[29],> 100 µM
same,TGI,[30],> 100 µM
same,TGI,[31],> 100 µM
same,TGI,[32],> 100 µM
same,TGI,[33],> 100 µM
same,TGI,[34],> 100 µM
same,TGI,[35],> 100 µM
same,TGI,[36],> 100 µM
same,TGI,[37],> 100 µM
same,TGI,[38],> 100 µM
same,TGI,[39],> 100 µM
same,TGI,[40],> 100 µM
same,TGI,[41],> 100 µM
same,TGI,[42],> 100 µM
same,TGI,[43],> 100 µM
same,TGI,[44],> 100 µM
same,TGI,[45],> 100 µM
same,TGI,[46],> 100 µM
same,TGI,[47],> 100 µM
same,TGI,[48],> 100 µM
same,TGI,[49],> 100 µM
same,TGI,[50],> 100 µM
same,TGI,[51],> 100 µM
same,TGI,[52],> 100 µM
same,TGI,[53],> 100 µM
same,TGI,[54],> 100 µM
same,TGI,[55],> 100 µM
same,TGI,[56],> 100 µM
CCc1cc2c(oc3cc(C)ccc32)c(=O)n1C,TGI,[1],> 10 µM
same,TGI,[2],> 10 µM
same,TGI,[3],> 10 µM
same,TGI,[4],> 10 µM
same,TGI,[5],> 10 µM
same,TGI,[6],> 10 µM
same,TGI,[7],> 10 µM
same,TGI,[8],> 10 µM
same,TGI,[9],> 10 µM
same,TGI,[10],> 10 µM
same,TGI,[11],> 10 µM
same,TGI,[13],> 10 µM
same,TGI,[14],> 10 µM
same,TGI,[57],> 10 µM
same,TGI,[16],> 10 µM
same,TGI,[17],> 10 µM
same,TGI,[18],> 10 µM
same,TGI,[19],> 10 µM
same,TGI,[20],> 10 µM
same,TGI,[58],> 10 µM
same,TGI,[21],> 10 µM
same,TGI,[22],> 10 µM
same,TGI,[25],> 10 µM
same,TGI,[27],> 10 µM
same,TGI,[28],> 10 µM
same,TGI,[29],> 10 µM
same,TGI,[30],> 10 µM
same,TGI,[31],> 10 µM
same,TGI,[32],> 10 µM
same,TGI,[33],> 10 µM
same,TGI,[34],> 10 µM
same,TGI,[35],> 10 µM
same,TGI,[36],> 10 µM
same,TGI,[38],> 10 µM
same,TGI,[39],> 10 µM
same,TGI,[40],> 10 µM
same,TGI,[41],> 10 µM
same,TGI,[42],> 10 µM
same,TGI,[43],> 10 µM
same,TGI,[44],> 10 µM
same,TGI,[45],> 10 µM
same,TGI,[47],> 10 µM
same,TGI,[48],> 10 µM
same,TGI,[49],> 10 µM
same,TGI,[50],> 10 µM
same,TGI,[51],> 10 µM
same,TGI,[59],> 10 µM
same,TGI,[53],> 10 µM
same,TGI,[55],> 10 µM
same,TGI,[56],> 10 µM
